Here are results for two molecules from paper PMC7694178, “Poziotinib Inhibits the Efflux Activity of the ABCB1 and ABCG2 Transporters and the Expression of the ABCG2 Transporter Protein in Multidrug Resistant Colon Cancer Cells” (Cancers, 2020).

A word on the EC50: it is the midpoint of the concentration-response curve. Read a high EC50 as weaker potency.

In data set [1] the target is T1, ABCB1 transporter (Homo sapiens, UniProt P08183). The experiment in a line: ATPase stimulation assay (ABCB1 expressed in High Five insect cells); supported by [3H]-paclitaxel accumulation and efflux in SW620/Ad300 cells. Format: biochemical.
T1 sequence (P08183 whole entry): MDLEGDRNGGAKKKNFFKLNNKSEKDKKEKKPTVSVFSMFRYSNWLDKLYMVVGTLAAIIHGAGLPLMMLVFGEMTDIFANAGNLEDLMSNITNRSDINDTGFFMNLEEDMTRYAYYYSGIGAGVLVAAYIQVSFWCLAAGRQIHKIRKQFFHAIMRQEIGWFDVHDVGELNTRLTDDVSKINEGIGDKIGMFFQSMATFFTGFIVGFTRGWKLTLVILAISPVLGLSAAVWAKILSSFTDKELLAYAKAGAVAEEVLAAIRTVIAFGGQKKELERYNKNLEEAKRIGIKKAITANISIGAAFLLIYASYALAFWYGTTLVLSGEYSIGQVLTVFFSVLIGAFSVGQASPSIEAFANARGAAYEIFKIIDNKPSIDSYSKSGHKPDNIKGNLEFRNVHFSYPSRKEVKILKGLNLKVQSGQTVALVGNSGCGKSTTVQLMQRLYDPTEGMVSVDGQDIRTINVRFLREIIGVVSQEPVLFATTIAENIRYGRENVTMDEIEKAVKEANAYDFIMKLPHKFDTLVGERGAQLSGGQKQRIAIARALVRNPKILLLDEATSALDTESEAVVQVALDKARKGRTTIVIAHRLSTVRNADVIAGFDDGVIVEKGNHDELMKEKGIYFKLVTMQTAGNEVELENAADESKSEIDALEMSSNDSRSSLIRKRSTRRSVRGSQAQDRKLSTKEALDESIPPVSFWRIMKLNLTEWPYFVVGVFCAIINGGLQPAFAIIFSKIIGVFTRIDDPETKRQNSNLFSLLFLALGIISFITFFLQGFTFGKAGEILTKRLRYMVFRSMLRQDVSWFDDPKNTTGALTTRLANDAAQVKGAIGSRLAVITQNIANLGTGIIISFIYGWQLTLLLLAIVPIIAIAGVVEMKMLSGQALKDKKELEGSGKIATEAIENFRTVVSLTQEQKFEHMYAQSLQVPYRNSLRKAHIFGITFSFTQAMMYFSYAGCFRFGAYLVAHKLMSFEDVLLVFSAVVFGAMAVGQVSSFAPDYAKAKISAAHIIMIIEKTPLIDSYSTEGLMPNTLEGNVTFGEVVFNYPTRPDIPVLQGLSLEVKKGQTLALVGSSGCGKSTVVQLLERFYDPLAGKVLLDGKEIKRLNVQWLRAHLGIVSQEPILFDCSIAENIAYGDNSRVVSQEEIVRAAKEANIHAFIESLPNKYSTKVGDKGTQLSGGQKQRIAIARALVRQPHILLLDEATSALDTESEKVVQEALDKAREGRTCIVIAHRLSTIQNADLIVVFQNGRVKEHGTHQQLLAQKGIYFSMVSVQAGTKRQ
The target of the next data set is T2, ABCG2 transporter (Homo sapiens, UniProt Q9UNQ0).
T2 sequence (Q9UNQ0 1-655): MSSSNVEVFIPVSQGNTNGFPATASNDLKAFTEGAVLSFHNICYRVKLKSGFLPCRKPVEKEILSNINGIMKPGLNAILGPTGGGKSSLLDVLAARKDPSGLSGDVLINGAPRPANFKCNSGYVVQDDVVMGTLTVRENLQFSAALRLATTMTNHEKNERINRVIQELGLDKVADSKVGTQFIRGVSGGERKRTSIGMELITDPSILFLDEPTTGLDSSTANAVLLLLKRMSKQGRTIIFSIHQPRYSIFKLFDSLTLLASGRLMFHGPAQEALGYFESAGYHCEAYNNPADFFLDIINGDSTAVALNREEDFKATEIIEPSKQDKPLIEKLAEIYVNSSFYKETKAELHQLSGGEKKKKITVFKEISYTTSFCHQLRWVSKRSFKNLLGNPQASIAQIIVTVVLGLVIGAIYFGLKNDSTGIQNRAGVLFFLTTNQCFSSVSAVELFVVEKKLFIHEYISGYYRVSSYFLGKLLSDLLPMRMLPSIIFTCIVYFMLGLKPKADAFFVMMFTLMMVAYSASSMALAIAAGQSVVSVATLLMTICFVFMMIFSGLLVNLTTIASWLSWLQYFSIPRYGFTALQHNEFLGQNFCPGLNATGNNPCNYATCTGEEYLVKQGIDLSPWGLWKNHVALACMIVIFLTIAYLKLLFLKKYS
The experiment in a line: ATPase stimulation assay (ABCG2 expressed in High Five insect cells); supported by [3H]-mitoxantrone accumulation and efflux in S1-M1-80 cells. Format: biochemical.

Data set [2] deals with T1, ABCB1 transporter.

For `C=CC(=O)N1CCC(Oc2cc3c(Nc4ccc(Cl)c(Cl)c4F)ncnc3cc2OC)CC1` [poziotinib], the EC50 at ABCB1 transporter [1] was found to be 20 nM; on ABCG2 transporter, 210 nM.

With `CC(=O)O[C@H]1C(=O)[C@@]2(C)[C@H]([C@H](OC(=O)c3ccccc3)[C@]3(O)C[C@H](OC(=O)[C@H](O)[C@@H](NC(=O)c4ccccc4)c4ccccc4)C(C)=C1C3(C)C)[C@]1(OC(C)=O)CO[C@@H]1C[C@@H]2O` [paclitaxel], on ABCB1 transporter [2], the “radiolabelled substrate accumulation and efflux in SW620/Ad300 vs SW620 cells” value was “overexpression of the ABCB1 transporter increases the efflux of the substrate, [^3H]-paclitaxel”.
